Consider eight molecules from patent US11597703B2, “Caspase inhibitors and methods of use thereof” (Histogen Inc., priority 2019, dated 2023).

Structures are written as SMILES.

Type in all cases: biochemical
In one assay the target is T1, Caspase-3 (Homo sapiens, UniProt P42574).
T1 construct: purchased Enzo Biosciences
T1 sequence (P42574 29-175 limits assumed): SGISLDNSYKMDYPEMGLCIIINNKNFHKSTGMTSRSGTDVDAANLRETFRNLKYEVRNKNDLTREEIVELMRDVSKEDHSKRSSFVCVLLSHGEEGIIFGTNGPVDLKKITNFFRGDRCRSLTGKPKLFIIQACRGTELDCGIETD
T1 sequence (P42574 176-277 limits assumed): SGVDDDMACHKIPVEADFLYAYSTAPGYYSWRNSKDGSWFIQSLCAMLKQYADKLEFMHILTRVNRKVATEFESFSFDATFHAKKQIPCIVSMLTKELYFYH
As to the kind of experiment: Caspase-3 enzymatic inhibition assay, IC50. The conditions noted are these: read-out: Caspase 3 enzyme inhibition IC50. On the procedure:
(§1) Human caspases were purchased from Enzo Biosciences and used according to the manufacturer's instructions. An exemplary caspase assay, for Caspase-1, is provided below:
(§2) Enzymatic assays were conducted for Caspase-3, 6 and 7 activity according to the manufacture's instructions.

In a further assay the target is T2, Caspase 6 (Homo sapiens, UniProt P55212).
T2 construct: purchased Enzo Biosciences
T2 sequence (P55212 24-179 limits assumed): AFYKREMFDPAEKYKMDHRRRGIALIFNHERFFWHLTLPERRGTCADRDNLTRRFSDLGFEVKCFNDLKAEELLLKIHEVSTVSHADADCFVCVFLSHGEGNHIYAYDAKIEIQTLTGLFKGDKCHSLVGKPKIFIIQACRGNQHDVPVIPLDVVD
T2 sequence (P55212 194-293 limits assumed): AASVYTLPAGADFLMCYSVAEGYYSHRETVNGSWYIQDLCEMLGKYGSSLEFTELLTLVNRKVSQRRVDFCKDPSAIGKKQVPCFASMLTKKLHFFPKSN
As to the kind of experiment: Caspase 6 enzymatic inhibition assay, IC50. The conditions noted are these: read-out: Caspase 6 enzyme inhibition IC50. On the procedure:
as §1, §2

For another assay, the target named is T3, Caspase-1 (Homo sapiens, UniProt P29466).
T3 construct: purchased Enzo Biosciences
T3 sequence (P29466 120-297 limits assumed): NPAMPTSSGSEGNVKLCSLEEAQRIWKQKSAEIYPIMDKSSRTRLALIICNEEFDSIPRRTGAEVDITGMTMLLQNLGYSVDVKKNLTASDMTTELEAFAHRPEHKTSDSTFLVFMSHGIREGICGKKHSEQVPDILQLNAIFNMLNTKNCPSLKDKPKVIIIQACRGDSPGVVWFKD
T3 sequence (P29466 317-404 limits assumed): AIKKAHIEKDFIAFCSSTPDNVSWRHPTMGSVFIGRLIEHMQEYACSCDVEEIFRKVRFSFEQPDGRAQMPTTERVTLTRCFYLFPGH
The assay is described as follows: Caspase-1 enzyme inhibition assay (Ac-YVAD-pNA substrate), IC50. On the procedure:
as §1
Caspase-1 was diluted to 10 U/μl in assay buffer consisting of 50 mM HEPES, pH 7.4, 100 mM NaCl, 0.1% CHAPS, 1 mM EDTA, 10% glycerol and 10 mM DTT.
45 μl of assay buffer was added into ½ volume microtiter plate. The plate was allowed to equilibrate to assay temperature. 5 μl of Caspase-1 (10 U/μl) was added to each appropriate well. Two 2 blank wells containing assay buffer alone without Caspase-1 were included on the plate.
The reaction was started by the addition of 50 μl Ac-YVAD-pNA substrate, for a final substrate concentration of 200 μM. The reaction was continuously monitored at 405 nm. The data was graphed as OD405 nm vs time, and the slope was determined over the linear portion of the curve. The rates in OD/min were converted to substrate/min using an extinction coefficient for p-nitroaniline of 10,500M-1 cm-1, and were adjusted for pathlength of sample. […]

The target of a further assay is T4, Caspase 7 (Homo sapiens, UniProt P55210).
T4 construct: purchased Enzo Biosciences
T4 sequence (P55210 24-198 limits assumed): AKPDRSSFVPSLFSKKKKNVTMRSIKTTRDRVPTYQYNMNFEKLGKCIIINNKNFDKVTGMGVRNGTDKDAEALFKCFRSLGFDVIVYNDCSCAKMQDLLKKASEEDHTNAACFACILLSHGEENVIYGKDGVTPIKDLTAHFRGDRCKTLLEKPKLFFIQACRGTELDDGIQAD
T4 sequence (P55210 207-303 limits assumed): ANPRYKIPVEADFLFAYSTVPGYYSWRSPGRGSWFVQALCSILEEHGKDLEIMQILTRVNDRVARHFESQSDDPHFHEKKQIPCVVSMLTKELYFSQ
As to the kind of experiment: Caspase 7 enzymatic inhibition assay, IC50. The conditions noted are these: read-out: Caspase 7 enzyme inhibition IC50. The protocol:
as §1, §2

Broadly, the IC50 is the concentration that inhibits the measured activity by half. As for `Cc1ccccc1NC(=O)C(=O)N[C@@H](C)C(=O)N[C@@H](CCC(=O)O)C(=O)COc1c(F)c(F)cc(F)c1F` [Example 21, (S)-4-((S)-2-(2-((2-methylphenyl)amino)-2-oxoacetamido)propanamido)-5-oxo-6-(2,3,5,6-tetrafluorophenoxy)hexanoic acid], the IC50 at Caspase-3 was at least 1000 nM; at Caspase 6 it was at least 1000 nM; against Caspase-1, at most 10 nM; on Caspase 7, at least 1000 nM.

`COc1ccccc1NC(=O)C(=O)N[C@@H](C)C(=O)N[C@@H](CCC(=O)O)C(=O)COc1c(F)c(F)cc(F)c1F` [Example 22, (S)-4-((S)-2-(2-((2-methyoxyphenyl)amino)-2-oxoacetamido)propanamido)-5-oxo-6-(2,3,5,6-tetrafluorophenoxy)hexanoic acid]: the 50% inhibitory concentration (IC50) at Caspase-3 was at least 1000 nM; on Caspase 6, at least 1000 nM; at Caspase-1, at most 10 nM; on Caspase 7 it was at least 1000 nM.

For `COc1cccc(NC(=O)C(=O)N[C@@H](C)C(=O)N[C@@H](CCC(=O)O)C(=O)COc2c(F)c(F)cc(F)c2F)c1` [Example 23, (S)-4-((S)-2-(2-((3-methyoxyphenyl)amino)-2-oxoacetamido)propanamido)-5-oxo-6-(2,3,5,6-tetrafluorophenoxy)hexanoic acid], the IC50 at Caspase-3 is at least 1000 nM; on Caspase 6, at least 1000 nM; on Caspase-1, at most 10 nM; on Caspase 7, at least 1000 nM.

As for `COc1ccc(NC(=O)C(=O)N[C@@H](C)C(=O)N[C@@H](CCC(=O)O)C(=O)COc2c(F)c(F)cc(F)c2F)cc1` [Example 24, (S)-4-((S)-2-(2-((4-methyoxyphenyl)amino)-2-oxoacetamido)propanamido)-5-oxo-6-(2,3,5,6-tetrafluorophenoxy)hexanoic acid], the half-inhibitory concentration (IC50) was at least 1000 nM on Caspase-3, at least 1000 nM on Caspase 6, at most 10 nM on Caspase-1 and at least 1000 nM on Caspase 7.

As to `Cc1ccc(NC(=O)C(=O)N[C@@H](C)C(=O)N[C@@H](CCC(=O)O)C(=O)COc2c(F)c(F)cc(F)c2F)nc1` [Example 25], the IC50 was at least 1000 nM on Caspase-3, at least 1000 nM on Caspase 6, at most 10 nM against Caspase-1 and at least 1000 nM on Caspase 7.

For the molecule `C[C@H](NC(=O)C(=O)Nc1cccc(C(F)(F)F)c1)C(=O)N[C@@H](CCC(=O)O)C(=O)COc1c(F)c(F)cc(F)c1F` [Example 26, (S)-5-oxo-4-((S)-2-(2-oxo-2-((3-(trifluoromethyl)phenyl)amino)acetamido)propanamido)-6-(2,3,5,6-tetrafluorophenoxy) hexanoic acid], the 50% inhibitory concentration (IC50) on Caspase-3 was at least 1000 nM; on Caspase 6 it was at least 1000 nM; on Caspase-1, at most 10 nM; at Caspase 7, at least 1000 nM.

As to `C[C@H](NC(=O)C(=O)Nc1ccc(C(F)(F)F)cc1)C(=O)N[C@@H](CCC(=O)O)C(=O)COc1c(F)c(F)cc(F)c1F` [Example 27, (S)-5-oxo-4-((S)-2-(2-oxo-2-((4-(trifluoromethyl)phenyl)amino)acetamido)propanamido)-6-(2,3,5,6-tetrafluorophenoxy) hexanoic acid], the 50% inhibitory concentration (IC50) was at least 1000 nM on Caspase-3, at least 1000 nM on Caspase 6, at most 10 nM against Caspase-1 and at least 1000 nM at Caspase 7.

As for `C[C@H](NC(=O)C(=O)Nc1c(F)cccc1F)C(=O)N[C@@H](CCC(=O)OCc1ccccc1)C(=O)COc1c(F)c(F)cc(F)c1F` [Example 28, benzyl(S)-4-((S)-2-(2-((2,6-difluorophenyl)amino)-2-oxoacetamido)propanamido)-5-oxo-6-(2,3,5,6-tetrafluorophenoxy)hexanoate], the half-maximal inhibitory concentration (IC50) at Caspase-3 was at least 1000 nM; at Caspase 6, at least 1000 nM; against Caspase-1 it was at most 10 nM; on Caspase 7, at least 1000 nM.
